Data as given in ChEMBL document CHEMBL3877324, “Synthesis of new spirooxindole-pyrrolothiazole derivatives: Anti-cancer activity and molecular docking” (Bioorg Med Chem, 2017).

Experiments:
[1] = Growth inhibition of human MCF7 cells after 48 hrs by WST1 assay; format: functional, cell-based; settings: MCF7, 48 h
[2] = Growth inhibition of human K562 cells after 48 hrs by WST1 assay; format: functional, cell-based; settings: K562, 48 h
MCF7 = assay: Induction of apoptosis in human MCF7 cells at 10 uM after 48 hrs by Annexin-V FITC/propidium iodide staining based flow cytometry relative to control; format: functional

Structure (SMILES) | IC50 [1] [µM] | IC50 [2] [µM] | fold change (FC) (MCF7)
O=C1Nc2ccccc2[C@]12N1CSC[C@H]1[C@H](c1ccc(Cl)cc1)[C@]21CCC/C(=C\c2ccc(Cl)cc2)C1=O | 49.1 | 24 | 
O=C1Nc2ccccc2[C@]12N1CSC[C@H]1[C@H](c1ccccc1)[C@]21CCC/C(=C\c2ccccc2)C1=O | 26.8 | 16.6 | 
COc1ccc(/C=C2\CCC[C@@]3(C2=O)[C@@H](c2ccc(OC)cc2)[C@@H]2CSCN2[C@@]32C(=O)Nc3ccccc32)cc1 | 24.4 | 19.5 | 
Cc1ccc(/C=C2\CCC[C@@]3(C2=O)[C@@H](c2ccc(C)cc2)[C@@H]2CSCN2[C@@]32C(=O)Nc3ccccc32)cc1 | 43.1 | 38.1 | 
O=C1Nc2ccccc2[C@]12N1CSC[C@H]1[C@H](c1cccc([N+](=O)[O-])c1)[C@]21CCC/C(=C\c2cccc([N+](=O)[O-])c2)C1=O | 25.8 | 27.6 | 
O=C1Nc2ccccc2[C@]12N1CSC[C@H]1[C@H](c1cccc(Br)c1)[C@]21CCC/C(=C\c2cccc(Br)c2)C1=O | 34.8 | 22.2 | 
O=c1[nH]cc(F)c(=O)[nH]1 [FLUOROURACIL] | 78.3 |  | 
O=C1Nc2ccccc2[C@]12N1CSC[C@H]1[C@H](c1cccc(F)c1)[C@]21CCC/C(=C\c2cccc(F)c2)C1=O | 145 | 15.7 | 
O=C1Nc2ccccc2[C@]12N1CSC[C@H]1[C@H](c1ccc(Br)cc1)[C@]21CCC/C(=C\c2ccc(Br)cc2)C1=O | 15.3 | 14.7 | 2
Cc1cccc(/C=C2\CCC[C@@]3(C2=O)[C@@H](c2cccc(C)c2)[C@@H]2CSCN2[C@@]32C(=O)Nc3ccccc32)c1 | 28.1 | 30.7 | 
O=C1Nc2ccccc2[C@]12N1CSC[C@H]1C(c1ccc(Cl)cc1Cl)[C@]21CCC/C(=C\c2ccc(Cl)cc2Cl)C1=O (single isomer, unassigned) | 26.1 | 19.5 | 
O=C1Nc2ccccc2[C@]12N1CSC[C@H]1[C@H](c1ccc(C(F)(F)F)cc1)[C@]21CCC/C(=C\c2ccc(C(F)(F)F)cc2)C1=O | 49.4 | 33.2 | 
